Data from ChEMBL document CHEMBL1151644, “Alkaloids and coumarins of Casimiroa edulis” (1985).

How the values were obtained:
Rattus norvegicus [1] = experiment: Diuretic activity in rat at 125 mg/kg; format: functional, Urine
Rattus norvegicus [2] = experiment: Antiinflammatory activity against carrageenan-induced hind paw edema in rat at 100 mg/kg; format: functional

Compound | Activity (Rattus norvegicus [1]) [%] | Activity (Rattus norvegicus [2]) [%]
CCCCCCCCCCCCCCCCCCCCCCCCCCCCCCC [HENTRIACONTANE] | 84 | 30.4
COc1c2ccoc2c(OC)c2oc(=O)ccc12 [ISOPIMPINELLIN] | 84 | 30.4
